# Measured values: PubChem BioAssay AID1259407 (Chemical Carcinogenesis Research Information System (CCRIS), 2018)
# Active and inactive are the calls of the source. The rule behind the calls is not given here.
# Tested on: CCRIS mutagenicity, Ames/micronucleus/aberration tests
# Experiment: CCRIS mutagenicity studies
# [1] = Test System: AMES SALMONELLA TYPHIMURIUM, Strain/Indicator: TA100, Metabolic Activation: NONE, Method: PREINCUBATION
# [2] = Test System: Ames Salmonella typhimurium, Strain/Indicator: TA98, Metabolic Activation: None, Method: Preincubation
# [3] = Test System: Ames Salmonella typhimurium, Strain/Indicator: TA100, Metabolic Activation: None, Method: Preincubation
# [4] = Test System: Ames Salmonella typhimurium, Strain/Indicator: TA1535, Metabolic Activation: None, Method: Preincubation
# [5] = Test System: Ames Salmonella typhimurium, Strain/Indicator: TA1537, Metabolic Activation: None, Method: Preincubation
# [6] = Test System: AMES SALMONELLA TYPHIMURIUM, Strain/Indicator: TA98, Metabolic Activation: NONE, Method: PREINCUBATION
compound,measurement,setting,value
CC(=O)OC[C@]12C[C@H](OC(=O)CC(C)C)C(C)=C[C@H]1O[C@@H]1[C@H](O)[C@@H](OC(C)=O)[C@@]2(C)[C@]12CO2,mutagenic call,"Test System: AMES SALMONELLA TYPHIMURIUM, Strain/Indicator: TA98, Metabolic Activation: RAT LIVER S-9, DELOR 103, Method: STANDARD PLATE",inactive; negative
same,mutagenic call,"Test System: AMES SALMONELLA TYPHIMURIUM, Strain/Indicator: TA98, Metabolic Activation: RAT, LIVER, MICROSOMES, PHENOBARBITAL, Method: STANDARD PLATE",inactive; negative
same,mutagenic call,[1],inactive; negative
same,mutagenic call,"Test System: AMES SALMONELLA TYPHIMURIUM, Strain/Indicator: TA100, Metabolic Activation: RAT LIVER S-9, DELOR 103, Method: STANDARD PLATE",inactive; negative
same,mutagenic call,"Test System: AMES SALMONELLA TYPHIMURIUM, Strain/Indicator: TA100, Metabolic Activation: RAT, LIVER, MICROSOMES, PHENOBARBITAL, Method: STANDARD PLATE",inactive; negative
same,mutagenic call,"Test System: AMES SALMONELLA TYPHIMURIUM, Strain/Indicator: TA100, Metabolic Activation: RAT, LIVER, S-9, PHENOBARBITAL, Method: PREINCUBATION",inactive; negative
same,mutagenic call,"Test System: CHINESE HAMSTER, Strain/Indicator: V-79/6-THIOGUANINE, Metabolic Activation: NONE, Method: STANDARD PLATE",active; positive
same,mutagenic call,"Test System: CHINESE HAMSTER, Strain/Indicator: V-79/6-THIOGUANINE, Metabolic Activation: S-9, Method: STANDARD PLATE",active; positive
C=C(CC(=O)OCC)C(=O)OCC,mutagenic call,"Test System: Chinese hamster ovary cells, Metabolic Activation: None, Method: CHO/HGPRT assay",inactive; negative
CC(C)N(CC(O)COc1cccc2ccccc12)N=O (centres undefined),mutagenic call,"Test System: UDS HUMAN HEPATOCYTES, Strain/Indicator: THY INCORP, Metabolic Activation: NONE, Method: AUTORADIOGRAPHY",active; positive
same,mutagenic call,"Test System: UDS RAT HEPATOCYTES, Strain/Indicator: THY INCORP, Metabolic Activation: NONE, Method: AUTORADIOGRAPHY",active; positive
ClC1OC1CBr (centres undefined),mutagenic call,[1],active; positive
Oc1ccc(Cc2ccc(O)cc2)cc1,mutagenic call,"End Point: In vitro micronucleus, Test System: HepG2 cells, Metabolic Activation: None",inactive; negative
same,mutagenic call,[2],inactive; negative
same,mutagenic call,"Test System: Ames Salmonella typhimurium, Strain/Indicator: TA98, Metabolic Activation: Rat, Liver, S-9, Aroclor 1254, Method: Preincubation",inactive; negative
same,mutagenic call,[3],inactive; negative
same,mutagenic call,"Test System: Ames Salmonella typhimurium, Strain/Indicator: TA100, Metabolic Activation: Rat, Liver, S-9, Aroclor 1254, Method: Preincubation",inactive; negative
same,mutagenic call,[4],inactive; negative
same,mutagenic call,"Test System: Ames Salmonella typhimurium, Strain/Indicator: TA1535, Metabolic Activation: Rat, Liver, S-9, Aroclor 1254, Method: Preincubation",inactive; negative
same,mutagenic call,[5],inactive; negative
same,mutagenic call,"Test System: Ames Salmonella typhimurium, Strain/Indicator: TA1537, Metabolic Activation: Rat, Liver, S-9, Aroclor 1254, Method: Preincubation",inactive; negative
same,mutagenic call,"Test System: E. coli, Strain/Indicator: W2 uvrA pKM101, Metabolic Activation: None, Method: Preincubation",inactive; negative
same,mutagenic call,"Test System: E. coli, Strain/Indicator: W2 uvrA pKM101, Metabolic Activation: Rat, Liver, S-9, Aroclor 1254, Method: Preincubation",inactive; negative
Cc1c2ccccc2cc2c3c(ccc12)C(O)C(O)[C@@H]1O[C@@H]31 (some centres undefined),mutagenic call,[6],active; positive
same,mutagenic call,[1],active; positive
same,mutagenic call,"Test System: CHINESE HAMSTER V-79, Strain/Indicator: V-79/6-THIOGUANINE, Metabolic Activation: NONE",active; positive
O[C@H]1[C@@H]2O[C@@H]2c2c(ccc3ccc4ccccc4c23)[C@@H]1O,mutagenic call,"Test System: E. COLI, Strain/Indicator: CL101P, Metabolic Activation: NONE, Method: PREINCUBATION",active; positive
same,mutagenic call,"Test System: E. COLI, Strain/Indicator: CL102P, Metabolic Activation: NONE, Method: PREINCUBATION",active; positive
same,mutagenic call,"Test System: E. COLI, Strain/Indicator: CL103P, Metabolic Activation: NONE, Method: PREINCUBATION",active; positive
same,mutagenic call,"Test System: E. COLI, Strain/Indicator: CL104P, Metabolic Activation: NONE, Method: PREINCUBATION",active; positive
same,mutagenic call,"Test System: E. COLI, Strain/Indicator: CL105P, Metabolic Activation: NONE, Method: PREINCUBATION",active; positive
same,mutagenic call,"Test System: E. COLI, Strain/Indicator: CL106P, Metabolic Activation: NONE, Method: PREINCUBATION",active; positive
CC1=NN(c2ccccc2)C(=O)C1,mutagenic call,"Test System: AMES SALMONELLA TYPHIMURIUM, Strain/Indicator: TA98, Metabolic Activation: HAMSTER, LIVER, S-9, AROCLOR 1254 (10%), Method: PREINCUBATION",inactive; negative
same,mutagenic call,[6],inactive; negative
same,mutagenic call,"Test System: AMES SALMONELLA TYPHIMURIUM, Strain/Indicator: TA98, Metabolic Activation: RAT, LIVER, S-9, AROCLOR 1254 (10%), Method: PREINCUBATION",inactive; negative
same,mutagenic call,"Test System: AMES SALMONELLA TYPHIMURIUM, Strain/Indicator: TA100, Metabolic Activation: HAMSTER, LIVER, S-9, AROCLOR 1254 (10%), Method: PREINCUBATION",inactive; negative
same,mutagenic call,[1],inactive; negative
same,mutagenic call,"Test System: AMES SALMONELLA TYPHIMURIUM, Strain/Indicator: TA100, Metabolic Activation: RAT, LIVER, S-9, AROCLOR 1254 (10%), Method: PREINCUBATION",inactive; negative
same,mutagenic call,"Test System: AMES SALMONELLA TYPHIMURIUM, Strain/Indicator: TA1535, Metabolic Activation: HAMSTER, LIVER, S-9, AROCLOR 1254 (10%), Method: PREINCUBATION",inactive; negative
same,mutagenic call,"Test System: AMES SALMONELLA TYPHIMURIUM, Strain/Indicator: TA1535, Metabolic Activation: NONE, Method: PREINCUBATION",inactive; negative
same,mutagenic call,"Test System: AMES SALMONELLA TYPHIMURIUM, Strain/Indicator: TA1535, Metabolic Activation: RAT, LIVER, S-9, AROCLOR 1254 (10%), Method: PREINCUBATION",inactive; negative
same,mutagenic call,"Test System: AMES SALMONELLA TYPHIMURIUM, Strain/Indicator: TA1537, Metabolic Activation: HAMSTER, LIVER, S-9, AROCLOR 1254 (10%), Method: PREINCUBATION",inactive; negative
same,mutagenic call,"Test System: AMES SALMONELLA TYPHIMURIUM, Strain/Indicator: TA1537, Metabolic Activation: NONE, Method: PREINCUBATION",inactive; negative
same,mutagenic call,"Test System: AMES SALMONELLA TYPHIMURIUM, Strain/Indicator: TA1537, Metabolic Activation: RAT, LIVER, S-9, AROCLOR 1254 (10%), Method: PREINCUBATION",inactive; negative
same,mutagenic call,[2],inactive; negative
same,mutagenic call,"Test System: Ames Salmonella typhimurium, Strain/Indicator: TA98, Metabolic Activation: Rat, Liver, S-9, Phenobarbital and 5,6-benzoflavone, Method: Preincubation",inactive; negative
same,mutagenic call,[3],inactive; negative
same,mutagenic call,"Test System: Ames Salmonella typhimurium, Strain/Indicator: TA100, Metabolic Activation: Rat, Liver, S-9, Phenobarbital and 5,6-benzoflavone, Method: Preincubation",inactive; negative
same,mutagenic call,[4],inactive; negative
same,mutagenic call,"Test System: Ames Salmonella typhimurium, Strain/Indicator: TA1535, Metabolic Activation: Rat, Liver, S-9, Phenobarbital and 5,6-benzoflavone, Method: Preincubation",inactive; negative
same,mutagenic call,[5],inactive; negative
same,mutagenic call,"Test System: Ames Salmonella typhimurium, Strain/Indicator: TA1537, Metabolic Activation: Rat, Liver, S-9, Phenobarbital and 5,6-benzoflavone, Method: Preincubation",inactive; negative
same,mutagenic call,"Test System: E. COLI, Strain/Indicator: WP2 UVRA, Metabolic Activation: HAMSTER, LIVER, S-9, AROCLOR 1254, Method: STANDARD PLATE",inactive; negative
same,mutagenic call,"Test System: E. COLI, Strain/Indicator: WP2 UVRA, Metabolic Activation: HAMSTER, LIVER, S-9, Method: STANDARD PLATE",inactive; negative
same,mutagenic call,"Test System: E. COLI, Strain/Indicator: WP2 UVRA, Metabolic Activation: MOUSE, LIVER, S-9, AROCLOR 1254, Method: STANDARD PLATE",inactive; negative
same,mutagenic call,"Test System: E. COLI, Strain/Indicator: WP2 UVRA, Metabolic Activation: MOUSE, LIVER, S-9, Method: STANDARD PLATE",inactive; negative
same,mutagenic call,"Test System: E. COLI, Strain/Indicator: WP2 UVRA, Metabolic Activation: NONE, Method: STANDARD PLATE",inactive; negative
same,mutagenic call,"Test System: E. COLI, Strain/Indicator: WP2 UVRA, Metabolic Activation: RAT, LIVER, S-9, AROCLOR 1254, Method: STANDARD PLATE",inactive; negative
same,mutagenic call,"Test System: E. COLI, Strain/Indicator: WP2 UVRA, Metabolic Activation: RAT, LIVER, S-9, Method: STANDARD PLATE",inactive; negative
same,mutagenic call,"Test System: E. coli, Strain/Indicator: WP2uvrA/pKM101, Metabolic Activation: None, Method: Preincubation",inactive; negative
same,mutagenic call,"Test System: E. coli, Strain/Indicator: WP2uvrA/pKM101, Metabolic Activation: Rat, Liver, S-9, Phenobarbital and 5,6-benzoflavone, Method: Preincubation",inactive; negative
same,mutagenic call,"Test System: MOUSE LYMPHOMA, Strain/Indicator: L5178Y (TK+/TK-), Metabolic Activation: NONE, Method: SUSPENSION/PLATE",inactive; negative
same,mutagenic call,"Test System: MOUSE LYMPHOMA, Strain/Indicator: L5178Y (TK+/TK-), Metabolic Activation: RAT, LIVER, S-9, AROCLOR 1254, Method: SUSPENSION/PLATE",active; positive
Cn1c(C(F)(F)F)cc2c(N3CCCC3)nc(N3CCCC3)nc21,mutagenic call,"Test System: UDS RAT HEPATOCYTES, Strain/Indicator: THY-INCORP, Metabolic Activation: NONE, Method: AUTORADIOGRAPHY",inactive; negative
